# Test results as given in patent US10835513B2, “Methods and treatments for the learning and memory deficits associated with Noonan syndrome” (The Regents of the University of California, priority 2013, dated 2020).
# Assays:
# [1] = system: Ptpn11^D61G/+ mice; assay: Morris water maze (hidden platform) in Ptpn11^D61G/+ mice treated with lovastatin; type: in vivo
# Description: (§1) FIG. 6 are graphs showing that Lovastatin treatment reverses spatial learning and memory and LTP deficits in Ptpn11^D61G/+ mice. […] Left, Representative immunoblot showing p-Erk (upper) and total Erk (lower) levels in Ptpn11^D61G/+ mice and WT. Hippocampi were dissected 6 hr after the 4th day of lovastatin injection (subcutaneous (s.c.) injections, 10 mg/kg). Right, Bar graph displaying normalized p-Erk levels (mean±s.e.m.). n=7-8 per group. t-test, *P<0.05. […] Two-way ANOVA followed by Bonferroni post-test, WT/Veh vs. Ptpn11^D61G/+/Veh, *P<0.05, **P<0.01; Ptpn11^D61G/+/Veh vs. Ptpn11^D61G/+/Lova, +P<0.05. […] Two-way ANOVA with genotype as between-subjects factor and drug treatment as within-subjects factor, effect of genotype: F(1, 45)=19.79, ***P<0.0001, interaction: F (1,45)=0.4489, P=0.506.
# SL327 (Tocris) was dissolved in DMSO (16 mg/ml) and was injected intraperitoneally once daily, 30 min before the water maze experiment at a dose of 32 mg/kg. The volume of a single injection was under 80 μl. Lovastatin (Mevinolin, Sigma) was prepared as previously described^21. Briefly, lovastatin was dissolved in ethanol (final concentration of 8%) and 1N NaOH was added to convert mevinolin to the sodium salt. The pH of the final solution (4 mg/ml) was adjusted to 7.5 with HCl. The Vehicle solution was prepared with the same procedure. Lovastatin was administered daily (subcutaneous injection, 10 mg/kg) for 3 days before the first training day of the water maze and 6 hr before training every day thereafter.
# In the hidden platform-version of Morris water maze, mice were trained with two blocks of 2 trials (ITI=1 min) spaced about 45 min apart. In each training trial, mice were released from a different starting position and then were allowed to search for the escape platform for 60 s. The platform was submerged 1 cm under the surface of the water. Once a mouse found the platform, it was left there for 15 s. […] Mice were trained for 5-7 consecutive days. Memory was assessed in probe trials that were given after completion of training as described in the main text. During the probe trial, the platform was removed and the mice were allowed to search for it for 60 s. Data were acquired and analyzed using WaterMaze software (Actimetrics).
# [2] = system: Erk; assay: p-Erk immunoblot of Ptpn11^D61G/+ hippocampi after lovastatin injection; type: in vivo, mice
# Description: as §1
# As in AAV-PTPN11^D61G-infected mice, p-Erk levels were increased in Ptpn11^D61G/+ hippocampi (FIG. 6, panel a). […] Importantly, the spatial learning performance of lovastatin-treated Ptpn11^D61G/+ mice was indistinguishable from controls (FIG. 6, panels d, e).
# Dissected hippocampi were homogenized in protein lysis buffer (10 mM Tris-Cl pH 6.8, 1.6% SDS) containing protease and phosphatase inhibitor cocktails (Sigma). Supernatants were collected after centrifugation and the protein concentration was determined using a BCA assay kit (Thermo). […]
# [3] = system: Nf1^+/− mutant mice; conditions: previous study (ref. 21); cited from earlier work
# [4] = system: hippocampal slices of Ptpn11^D61G/+ mice; assay: 5 TBS-induced LTP in hippocampal slices after systemic administrations of lovastatin; type: in vivo
# Description: FIG. 6 are graphs showing that Lovastatin treatment reverses spatial learning and memory and LTP deficits in Ptpn11^D61G/+ mice. […] Left, Representative immunoblot showing p-Erk (upper) and total Erk (lower) levels in Ptpn11^D61G/+ mice and WT. Hippocampi were dissected 6 hr after the 4th day of lovastatin injection (subcutaneous (s.c.) injections, 10 mg/kg). Right, Bar graph displaying normalized p-Erk levels (mean±s.e.m.). n=7-8 per group. t-test, *P<0.05. […] Two-way ANOVA followed by Bonferroni post-test, WT/Veh vs. Ptpn11^D61G/+/Veh, *P<0.05, **P<0.01; Ptpn11^D61G/+/Veh vs. Ptpn11^D61G/+/Lova, +P<0.05. […]
# For extracellular recordings of field excitatory postsynaptic potentials (fEPSP), sagittal slices (400 μm) were prepared with a vibratome (VT1000S, Leica) in ice-cold artificial cerebrospinal fluid (ACSF). […] Recording was performed in a submerged chamber perfused with ACSF (32° C.). fEPSPs were recorded with platinum-iridium electrodes placed in the CA1 stratum radiatum. […] Baseline responses were measured with stimulation (0.017 Hz, 0.1 ms pulse duration) at an intensity (typically 20-30 μA) that evoked a response that was approximately one third of the maximum evoked response. […] Initial fEPSP slopes were measured and normalized to the average of baseline (Clampfit 10.2).
# [5] = Ptpn11^D61G/+ mice, lovastatin 10 mg/kg s.c.
smiles,measurement,setting,value
CC[C@H](C)C(=O)O[C@H]1C[C@@H](C)C=C2C=C[C@H](C)[C@H](CC[C@@H]3C[C@@H](O)CC(=O)O3)[C@H]21 [Lovastatin],"proximity to the target platform, probe trial",[1]; [5],39.82±2.53 cm
same,"time in the target quadrant, probe trial",[1]; [5],45.70±4.43%
same,latency to the hidden platform during training sessions,"[1]; Ptpn11^D61G/+ mice, lovastatin 10 mg/kg s.c. daily",comparable latency to WT mice
same,"preference for the target quadrant, quadrant occupancy analysis","[1]; Ptpn11^D61G/+/Lova group, TQ vs. other quadrants",selectively searched for the target quadrant
same,any measure of learning in WT animals,"[1]; WT animals, lovastatin at the concentration used (10 mg/kg)",had no effect on any measure of learning
same,"proximity to the target platform, probe trial","[1]; WT mice, lovastatin 10 mg/kg s.c.",35.28±3.26 cm
same,normalized p-Erk levels in hippocampi,"[2]; Ptpn11^D61G/+ hippocampi, 6 hr after the 4th day of lovastatin s.c. 10 mg/kg",reverses increased Erk activation
same,Erk activation in hippocampi,"[2]; WT controls, lovastatin s.c. 10 mg/kg",did not affect Erk activation in controls
same,"spatial learning problems, attention deficits and pre-pulse inhibition deficits",[3],can rescue
same,"Average % fEPSP changes (last 10 minutes of recordings), 5 TBS-induced LTP",[4]; Ptpn11^D61G/+ mice,154.2±6.88%
same,"Average % fEPSP changes (last 10 minutes of recordings), 5 TBS-induced LTP",[4]; WT mice,150.7±5.49%
